Results from PMC9606955, “In Vitro Activity of Essential Oils Distilled from Colombian Plants against Candida auris and Other Candida Species with Different Antifungal Susceptibility Profiles” (Molecules, 2022).
Converted amounts (≈) assume the structure as drawn.

How the values were obtained:
[1] = tested on: C. krusei ATCC 6258; experiment: MIC, CLSI M27 broth microdilution; format: cell-based, Candida krusei; conditions: C. krusei ATCC 6258; EOs and terpenes; 24 h; top concentration 256 µg/mL
Source text: (§1) The fungal strains used in this study were C. albicans ATCC 10231, C. albicans ATCC 64550, C. parapsilosis ATCC 22019, C. tropicalis ATCC 750, C. tropicalis ATCC 200956 (resistant to azoles and AMB), C. glabrata LMDM 34 (resistant to echinocandins), C. metapsilosis MUM 15.12, C. orthopsilosis MUM 17.13, C. lusitaniae MUM 17.08, C. krusei ATCC 6258 (Issatchenkia orientalis ATCC 6258), and C. auris CDC B11903. Additionally, nine clinical isolates were included: C. parapsilosis Synlab 406 (FLC-resistant) and eight C. auris isolates identified by MALDI-TOF MS (Bruker Daltonics, Bremen, Germany) according to Zhao et al.. These yeasts were cultured on Sabouraud Dextrose Agar (SDA; Sigma-Aldrich, St. Louis, MO, USA) for 24 h at 35 °C.
(§2) Antifungal susceptibility testing was performed according to Clinical and Laboratory Standards Institute M27, 4th Edition (CLSI standard M27, 4th Edition). Some modifications were applied for evaluation of the antifungal activity of EOs and terpenes. Initially, a screening was carried out to determine the antifungal activity of the EOs and of commercial terpenes. Stock concentrations of EOs and terpenes were prepared at 512 µg/mL and an inoculum of 2.5 × 10^3 CFU/mL of each yeast was prepared in RPMI 1640-MOPS (Sigma- Aldrich St. Louis, MO, USA). Thereafter, 100 µL of each stock solution of EOs or terpenes was dispensed in 96-well microdilution plates (Corning®, Costar®, NY, USA) and 100 µL of each yeast inoculum was added. […] Microdilution plates were incubated at 35 °C and, after 24 h, the presence or absence of growth was visually checked using a manual mirror viewer and then compared with the amount of growth in the control (no EO or terpene). Compounds able to inhibit yeast growth were tested to determine the minimal inhibitory concentration (MIC) as follows: 100 µL of 10 two-fold dilutions of the EOs or commercial terpenes was dispensed in 96-well microplates and the yeast inoculum was added. Final concentrations of the EOs or terpenes ranged from 0.5 µg/mL to 256 µg/mL. Microdilution plates were incubated at 35 °C for 24 h. MICs were visually determined at the lowest concentration that produced visual inhibition compared to the growth control. The assays were performed at least three times in duplicate on different days. The results were expressed as geometric means (GM) and ranges. As an antifungal susceptibility testing control, the activity of ITC and AMB against the reference strains C. krusei ATCC 6258 and C. parapsilosis ATCC 22019 was evaluated in all experiments following the CLSI standard M27, 4th Edition. It was mandatory that the MIC values remained in the accepted range.

[2] = tested on: C. tropicalis ATCC 200956; experiment: MIC, CLSI M27 broth microdilution; format: cell-based, Candida tropicalis; conditions: C. tropicalis ATCC 200956, EOs and terpenes
Source text: as §1, §2

[3] = tested on: C. metapsilosis MUM 15.12; experiment: MIC, CLSI M27 broth microdilution; format: cell-based, Candida metapsilosis; conditions: C. metapsilosis MUM 17.13 (Table 3), EOs and terpenes, 24 h, top concentration 256 µg/mL
Source text: as §1, §2

[4] = tested on: C. orthopsilosis MUM 17.13; experiment: MIC, CLSI M27 broth microdilution; format: cell-based, Candida orthopsilosis; conditions: C. orthopsilosis MUM 15.12 (Table 3), EOs and terpenes, 24 h, top concentration 256 µg/mL
Source text: as §1, §2

[5] = tested on: C. lusitaniae MUM 17.08; experiment: MIC, CLSI M27 broth microdilution; format: cell-based, Candida lusitaniae; conditions: C. lusitaniae MUM 17.08, EOs and terpenes
Source text: as §1, §2

[6] = tested on: C. auris CDC B11903; experiment: MIC, CLSI M27 broth microdilution; format: cell-based, Candida auris; conditions: C. auris CDC B11903, EOs and terpenes, 24 h, top concentration 256 µg/mL
Source text: as §1, §2

[7] = tested on: C. auris Ca 13; experiment: MIC, CLSI M27 broth microdilution; format: cell-based, Candida auris; conditions: C. auris Ca 13, EOs and terpenes
Source text: as §1, §2

[8] = tested on: C. auris Ca 17; experiment: MIC, CLSI M27 broth microdilution; format: cell-based, Candida auris; conditions: C. auris Ca 17, EOs and terpenes, 24 h, top concentration 256 µg/mL
Source text: as §1, §2

[9] = tested on: C. auris Ca 1; experiment: MIC, CLSI M27 broth microdilution; format: cell-based, Candida auris; conditions: C. auris Ca 1, EOs and terpenes, 24 h, top concentration 256 µg/mL
Source text: as §1, §2

[10] = tested on: C. auris Ca 32; experiment: MIC, CLSI M27 broth microdilution; format: cell-based, Candida auris; conditions: C. auris Ca 32, EOs and terpenes
Source text: as §1, §2

[11] = tested on: C. auris Ca 41; experiment: MIC, CLSI M27 broth microdilution; format: cell-based, Candida auris; conditions: C. auris Ca 41, EOs and terpenes, 24 h, top concentration 256 µg/mL
Source text: as §1, §2

[12] = tested on: C. auris Ca 45; experiment: MIC, CLSI M27 broth microdilution; format: cell-based, Candida auris; conditions: C. auris Ca 45, EOs and terpenes, 24 h, top concentration 256 µg/mL
Source text: as §1, §2

[13] = tested on: C. auris Ca 46; experiment: MIC, CLSI M27 broth microdilution; format: cell-based, Candida auris; conditions: C. auris Ca 46, EOs and terpenes, 24 h, top concentration 256 µg/mL
Source text: as §1, §2

[14] = tested on: C. auris Ca 9; experiment: MIC, CLSI M27 broth microdilution; format: cell-based, Candida auris; conditions: C. auris Ca 9, EOs and terpenes
Source text: as §1, §2

[15] = tested on: C. parapsilosis Synlab 406; experiment: MIC, CLSI M27 broth microdilution; format: cell-based, Candida parapsilosis; conditions: C. parapsilosis Synlab 406, EOs and terpenes
Source text: as §1, §2

[16] = tested on: C. auris; experiment: MIC, CLSI M27 broth microdilution, several C. auris strains together; format: cell-based, Candida auris; conditions: over all C. auris strains of Table 4
Source text: as §1
(§3) Antifungal susceptibility testing was performed according to Clinical and Laboratory Standards Institute M27, 4th Edition (CLSI standard M27, 4th Edition). […] MICs were visually determined at the lowest concentration that produced visual inhibition compared to the growth control. […] The results were expressed as geometric means (GM) and ranges. As an antifungal susceptibility testing control, the activity of ITC and AMB against the reference strains C. krusei ATCC 6258 and C. parapsilosis ATCC 22019 was evaluated in all experiments following the CLSI standard M27, 4th Edition. […]

[17] = tested on: Candida spp.; experiment: MIC, CLSI M27 broth microdilution, all Candida spp. of Tables 3 and 4 together; format: cell-based; conditions: over all strains of Table 3 and Table 4
Source text: as §1, §3

[18] = tested on: Candida spp.; experiment: Screening of antifungal activity at 256 µg/mL against twenty strains; format: cell-based; conditions: screening at 256 µg/mL
Source text: as §1
Antifungal susceptibility testing was performed according to Clinical and Laboratory Standards Institute M27, 4th Edition (CLSI standard M27, 4th Edition). Some modifications were applied for evaluation of the antifungal activity of EOs and terpenes. Initially, a screening was carried out to determine the antifungal activity of the EOs and of commercial terpenes. Stock concentrations of EOs and terpenes were prepared at 512 µg/mL and an inoculum of 2.5 × 10^3 CFU/mL of each yeast was prepared in RPMI 1640-MOPS (Sigma- Aldrich St. Louis, MO, USA). Thereafter, 100 µL of each stock solution of EOs or terpenes was dispensed in 96-well microdilution plates (Corning®, Costar®, NY, USA) and 100 µL of each yeast inoculum was added. […] MICs were visually determined at the lowest concentration that produced visual inhibition compared to the growth control. […] The results were expressed as geometric means (GM) and ranges. As an antifungal susceptibility testing control, the activity of ITC and AMB against the reference strains C. krusei ATCC 6258 and C. parapsilosis ATCC 22019 was evaluated in all experiments following the CLSI standard M27, 4th Edition. […]

[19] = tested on: HaCaT cell line; experiment: Cytotoxicity, MTT assay; conditions: MTT, 24 h treatment, HaCaT keratinocytes
Protocol: (§4) Cells were cultured in Dulbecco’s Modified Eagle Medium (DMEM; Sigma-Aldrich, St. Louis, MO, USA) supplemented with 10% fetal bovine serum (Invitrogen, Carlsbad, CA, USA), 1% penicillin, streptomycin, and neomycin (Invitrogen, Carlsbad, CA, USA), and 1% L-glutamine (Invitrogen, Carlsbad, CA, USA) at 37 °C in a humidified atmosphere of 5% CO2. […] Afterwards, the culture medium was removed and 3-(4.5-dimethylthiazol-2-yl)-2.5-diphenyltetrazolium bromide (MTT) (Sigma-Aldrich, St. Louis, MO, USA) at 5 mg/mL was added at 37 °C for 2 h. Subsequently, DMSO was added to dissolve the formazan crystals. Finally, the absorbances were measured with a Multiskan SkyHigh Microplate Spectrophotometer (Thermo Fisher Scientific, Waltham, MA, USA) at λ = 570 nm. The CC50 values were obtained by linear regression analysis with concentration–response curves, which were performed with absorbance data using GraphPad Prism software (Prism 9.3.0, San Diego, CA, USA). The assays were conducted at two separate times in triplicate. The data were expressed as means.

[20] = in vitro; conditions: human
Protocol: as §4

[21] = 24 h, top concentration 256 µg/mL

C=C(C)[C@H]1CC=C(C)CC1 [Limonene, limonene]
GM MIC [1]: 32 µg/mL | GM MIC [2, 21]: 64 µg/mL | GM MIC [3]: 64 µg/mL | GM MIC [4]: 16 µg/mL | Range MIC [5]: 16 to 32 µg/mL | GM MIC [5, 21]: 22.6 µg/mL | GM MIC [6]: 64 µg/mL | Range MIC [7]: 16 to 32 µg/mL | GM MIC [7, 21]: 22.6 µg/mL | GM MIC [8]: 64 µg/mL | GM MIC [9]: 64 µg/mL | Range MIC [10]: 16 to 32 µg/mL | GM MIC [10, 21]: 22.6 µg/mL | GM MIC [11]: 16 µg/mL | GM MIC [12]: 16 µg/mL | GM MIC [13]: 16 µg/mL | Range MIC [14]: 16 to 32 µg/mL | GM MIC [14, 21]: 22.6 µg/mL | GM MIC [15, 21]: 64 µg/mL | MIC Range [16]: 16 to 64 µg/mL | MIC Range [17]: 16 to 64 µg/mL | antifungal activity in screening [18]: active against all tested Candida spp. | HaCaT Cells Mean CC50 [19]: 400.5 µg/mL

C=C(C)[C@@H]1CC=C(CO)CC1 [Perillyl alcohol, perillyl alcohol]
Range MIC [2]: 128 to 256 µg/mL | MIC ([2]; Candida tropicalis, ATCC200956, 24 h, top concentration 256 µg/mL, read-out: GM MIC): 181 µg/mL (≈ 1190 µM) | MIC ([3]; Lodderomyces metapsilosis, MUM15.12, read-out: GM MIC): 256 µg/mL (≈ 1680 µM) | MIC ([4]; Lodderomyces orthopsilosis, MUM17.13, read-out: GM MIC): 256 µg/mL (≈ 1680 µM) | Range MIC [5]: 128 to 256 µg/mL | MIC ([5]; Clavispora lusitaniae, MUM17.08, 24 h, top concentration 256 µg/mL, read-out: GM MIC): 181 µg/mL (≈ 1190 µM) | MIC ([6]; Candidozyma auris, CDCB11903, read-out: GM MIC): 256 µg/mL (≈ 1680 µM) | MIC ([7]; Candidozyma auris, CA13, 24 h, top concentration 256 µg/mL, read-out: GM MIC): 256 µg/mL (≈ 1680 µM) | MIC ([8]; Candidozyma auris, CA17, read-out: GM MIC): 256 µg/mL (≈ 1680 µM) | MIC ([9]; Candidozyma auris, CA1, read-out: GM MIC): 256 µg/mL (≈ 1680 µM) | MIC ([10]; Candidozyma auris, CA32, 24 h, top concentration 256 µg/mL, read-out: GM MIC): 128 µg/mL (≈ 841 µM) | MIC ([11]; Candidozyma auris, CA41, read-out: GM MIC): 128 µg/mL (≈ 841 µM) | MIC ([12]; Candidozyma auris, CA45, read-out: GM MIC): 256 µg/mL (≈ 1680 µM) | MIC ([13]; Candidozyma auris, CA46, read-out: GM MIC): 256 µg/mL (≈ 1680 µM) | MIC ([14]; Candidozyma auris, CA9, 24 h, top concentration 256 µg/mL, read-out: GM MIC): 128 µg/mL (≈ 841 µM) | Range MIC [15]: 64 to 128 µg/mL | MIC ([15]; Lodderomyces parapsilosis, SYNLAB406, 24 h, top concentration 256 µg/mL, read-out: GM MIC): 90.5 µg/mL (≈ 594 µM) | CC50 at 24 h [20]: 401 µg/mL (≈ 2630 µM)
